Test results published in patent US9938238B2, “Anti-auxin compounds” (priority 2015, dated 2018).

How the values were obtained:
Type in all cases: in vivo, Arabidopsis
[1] = tested on: ETR2, AtEBP, ACO2 expression; assay: Northern analysis of ethylene responsive gene expression in seedlings; details: Col-0 wt, hydroponic, dark 4 d
Procedure: (§1) Total RNA was extracted from leaf tissue using the RNeasy Plant Mini Kit (Qiagen, Valencia, Calif.). 10 μg of total RNA was separated by electrophoresis in a 1% (w/v) denaturing agarose gel, after which the RNA was blotted to Zeta-Probe GT Blotting Membrane (Bio-Rad, Hercules, Calif.). ^32P-labelled probes were generated using the RadPrime DNA labeling system (Invitrogen).
Manifestation of ethylene response is dependent on transcriptional induction of ethylene-regulated genes (Alonso et al., 2003; Chao et al., 1997; Solano et al., 1998). This relies on two primary transcription factors, EIN3 and EIL1, with mutational loss of both causing nearly complete ethylene insensitivity. It could be predicted that since PA treatment limits ethylene response it would also reduce or prevent ethylene inducible gene expression similar to the ethylene insensitive ein3-1; eil1-1 double mutant. To test this, Col-0 wt seedlings were treated with 5 μM AgNO3 or increasing concentrations of ethylene in the absence or presence of 25 μM PA, which is also a concentration that results in blockage of ethylene response. […] The latter two genes are not properly expressed in a group of enhanced ethylene response Arabidopsis mutants, with these argued to be members of a subset of ethylene regulated genes whose products are required for controlling the magnitude of ethylene response (Christians and Larsen, 2007; Christians et al., 2008; Deslauriers and Larsen, 2010; Robles et al., 2007).
In contrast to PA treatment, auxin has an antagonistic relationship regarding induction of this same subset of genes. Col-0 wt seedlings were grown hydroponically in the dark for 4 d in the presence of 5 μM AgNO3, 1 μM ACC or 10 μM ACC in the absence or presence of 10 μM 1-naphthaleneacetic acid (NAA) after which tissue was collected for RNA isolation and Northern analysis.

[2] = tested on: chiB and PDF1.2 expression; assay: Expression of ethylene regulated defense genes in leaves; details: 24 h
Procedure: as §1
For this analysis, Arabidopsis plants were grown hydroponically for 13 d after which they were treated with or without 10 μM ACC in the absence or presence of 25 μM PA, with all samples exposed to 10 μM+/−JA for the 24 h treatment period. […] Auxin functions in a synergistic manner with ethylene and JA to control expression of PDF1.2, with addition of auxin resulting in its hyperinduction (Robles et al., 2012).

Col-0 wt seedlings = assay: Blockage of auxin dependent inhibition of root growth; details: for root length, auxin alone: light, 7 d, 150 nM NAA or 300 nM IAA versus untreated roots
Procedure: For screening for chemicals that reduce ethylene response, Arabidopsis ctr1-3 seeds were planted on a microtiter plate containing PNS media in the presence of individual chemicals (50 μM concentration of each) from the Microsource Spectrum Collection. Seedlings were grown in the dark for 4 d after which they were scored for manifestation of the ethylene responsive triple response. For all other growth experiments, seedlings were planted on PNS media supplemented with the relevant chemical (Deslauriers and Larsen, 2010). For conditions requiring pamoic acid, media was supplemented with Pamoic acid disodium salt (Sigma Life Science, St. Louis, Mo.). Measurement of ethylene production was conducted as previously described (Deslauriers and Larsen, 2010). […]

DR5::GUS = assay: GUS analysis of auxin responsive DR5::GUS reporter line; details: for GUS activity in root tip and mature region of the root, auxin alone: 100 nM NAA or 750 nM IAA
Procedure: GUS analysis of DR5::GUS lines was performed as previously described (Ni et al., 2001).
Auxin responsiveness has also been assessed using the Arabidopsis DR5::GUS transgenic line in which several auxin response elements are fused upstream of the GUS reporter gene (Ni et al., 2001). Normally, treatment of DR5::GUS lines with exogenous auxin leads to increased GUS levels, which can be visualized through accumulation of blue color upon adding X-Gluc.

ctr1-3 seedlings = assay: Seedling triple response of constitutive ethylene response mutant ctr1-3 (library screen and follow-up); details: etiolated ctr1-3 in air, 4 d, 50 μM of each chemical
Procedure: For screening for chemicals that reduce ethylene response, Arabidopsis ctr1-3 seeds were planted on a microtiter plate containing PNS media in the presence of individual chemicals (50 μM concentration of each) from the Microsource Spectrum Collection. Seedlings were grown in the dark for 4 d after which they were scored for manifestation of the ethylene responsive triple response. For all other growth experiments, seedlings were planted on PNS media supplemented with the relevant chemical (Deslauriers and Larsen, 2010). For conditions requiring pamoic acid, media was supplemented with Pamoic acid disodium salt (Sigma Life Science, St. Louis, Mo.). Measurement of ethylene production was conducted as previously described (Deslauriers and Larsen, 2010).
A chemical library screen was performed in which etiolated seedlings of the constitutive ethylene response mutant, ctr1-3, were grown in air for 4 d in the presence of chemicals from the Microsource Spectrum Collection, a bioactive and natural compound library consisting of 2000 different compounds. ctr1-3 seedlings were scored for presentation of the ethylene regulated seedling triple response, consisting of severe hypocotyl and root shortening and exaggerated apical hook formation.

With `NC1(C(=O)O)CC1` [ACC, 1-aminocyclopropane-1-carboxylic acid] the “induction of ACO2 and AtEBP” value ([1]; 1 μM or 10 μM ACC without NAA) was “normal ethylene responsive induction” and the “chiB and PDF1.2 expression” value ([2]; plants grown 13 d hydroponically, 10 μM ACC, 10 μM JA) was “increased expression”.
In the case of `O=C(O)Cc1c[nH]c2ccccc12` [IAA, indole-3-acetic acid], the “root length, IAA alone” value (Col-0 wt seedlings; 5 days, 300 nM IAA in the absence of Tolmetin (FIG. 6)) is reported as “severely inhibitory to roots”, the “root length, auxin alone” value (Col-0 wt seedlings) is reported as “severe root growth inhibition” and the “GUS activity in root tip and mature region of the root, auxin alone” value (DR5::GUS) is reported as “increased GUS activity”. The “lateral root initiation, auxin alone” value (DR5::GUS; 750 nM IAA (FIG. 8)) was “promotes initiation of lateral roots”.
`O=C(O)Cc1cccc2ccccc12` [NAA, 1-naphthaleneacetic acid] was tested, and the “root length, auxin alone” value (Col-0 wt seedlings) was “severe root growth inhibition”, the “GUS activity in root tip and mature region of the root, auxin alone” value (DR5::GUS) was “increased GUS activity” and the “induction of ACO2 and AtEBP” value ([1]; 1 μM or 10 μM ACC plus 10 μM NAA) was “nearly eliminated induction”. For the same compound, the ETR2 expression ([1]; ACC treatments plus 10 μM NAA) was “no obvious effect on ETR2 expression” and the “chiB and PDF1.2 levels” value ([2]; 10 μM ACC supplemented with 250 nM NAA) was “far greater than what was observed following treatment with ACC alone”.
With `CN1CCCN=C1/C=C/c1cccs1` [Pyrantel pamoate] the “apical hook formation in chemical library screen” value (ctr1-3 seedlings) was “blocked apical hook formation” and the “root length in chemical library screen” value (ctr1-3 seedlings) was “measurably longer roots”.
